According to patent US20260223850A1, “SUBSTITUTED PYRROLIDONE COMPOUND, PREPARATION METHOD THEREFOR, COMPOSITION AND APPLICATION THEREOF” (QINGDAO KINGAGROOT CHEMICAL COMPOUND CO., LTD., priority 2023, published 2026):

How the values were obtained:
Assay type in all cases: in vivo
[1] = test system: Echinochloa phyllopogon; test: Seedling stage sealing experiment for water-seeding; conditions: 120 g a.i./ha, seedling stage sealing, 15 days, fresh weight control rate
In short: (§1)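 Read-out: 0–9 damage level from fresh-weight control rate (9 = completely dead, 1 = under 10%, 0 = no effect), averaged over triplicates, taken 15 days after spraying. Doses were 120, 60, 30 and 15 g a.i./ha, acetone/water solution, spray tower.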

[2] = test system: Digitaria sanguinalis; test: as above; conditions: 120 g a.i./ha, seedling stage sealing, 15 days, fresh weight control rate
In short: as §1

[3] = test system: Echinochloa crusgalli; test: as above; conditions: 120 g a.i./ha, seedling stage sealing, 15 days, fresh weight control rate
[4] = test system: Leptochloa chinensis; test: as above; conditions: 120 g a.i./ha, 15 days, fresh weight control rate
In short: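 Seeds sown in soil-filled bowls kept moist in water-filled boxes; compound in acetone diluted with water and spray-applied at 120, 60, 30 and 15 g a.i./ha, triplicate. After 15 days in greenhouse, fresh-weight growth control scored on a 0–9 scale (9 = dead, 0 = no effect), averaged.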

[5] = test system: Huaidao (rice cultivar); test: Seedling stage sealing experiment for water-seeding (crop safety); conditions: 120 g a.i./ha, seedling stage sealing, 15 days, fresh weight control rate
In short: as §1

| Compound | Echinochloa phyllopogon activity level (growth control rate) [1] | Digitaria sanguinalis activity level (growth control rate) [2] | Echinochloa crusgalli activity level (growth control rate) [3] | Leptochloa chinensis activity level (growth control rate) [4] | Huaidao (rice cultivar) plant damage level [5] |
| --- | --- | --- | --- | --- | --- |
| Cc1cccc([C@H]2CN(C)C(=O)[C@@H]2C(=O)Nc2cnn(C(F)F)c2Cl)c1 [131′] | 9 | 9 | 9 | 9 | – |
| CN1C[C@H](c2cc(C(F)(F)F)cc(C(F)(F)F)c2)[C@@H](C(=O)Nc2cnn(C)c2Cl)C1=O [295′] | 6 (Level 6: growth control rate greater than or equal to 70% and less than 80%) | 9 | 7 (Level 7: growth control rate greater than or equal to 80% and less than 90%) | 9 | – |
| COc1cc(F)cc([C@H]2CN(C)C(=O)[C@@H]2C(=O)Nc2cnn(C)c2Cl)c1 [298′] | 6 (Level 6: growth control rate greater than or equal to 70% and less than 80%) | 9 | 7 (Level 7: growth control rate greater than or equal to 80% and less than 90%) | 7 (Level 7: growth control rate greater than or equal to 80% and less than 90%) | – |
| Cc1ccc(C2CN(C)C(=O)C2C(=O)Nc2cnn(C)c2Cl)cc1C(F)(F)F (centres unmarked) [Compound 56] | 6 (Level 6: growth control rate greater than or equal to 70% and less than 80%) | 9 | 9 | 9 | – |
| CN1CC(c2cc(F)c(F)c(F)c2)C(C(=O)Nc2cnn(C)c2Cl)C1=O (centres unmarked) [Compound 114] | 6 (Level 6: growth control rate greater than or equal to 70% and less than 80%) | 9 | 9 | 9 | – |
| Cc1cc(C)cc(C2CN(C)C(=O)C2C(=O)Nc2cnn(C)c2Cl)c1 (centres unmarked) [Compound 117] | 6 (Level 6: growth control rate greater than or equal to 70% and less than 80%) | 9 | 9 | 9 | 0 |
| COc1c(Cl)ccc(C2CN(C)C(=O)C2C(=O)Nc2cnn(C)c2Cl)c1F (centres unmarked) [Compound 118] | 6 (Level 6: growth control rate greater than or equal to 70% and less than 80%) | 9 | 9 | 6 (Level 6: growth control rate greater than or equal to 70% and less than 80%) | – |
